Reference: US20070270484A1, “3'-N-Substituted-3-O-Substituted Erythronolide a Derivatives” (priority 2003, published 2007)
In brackets after ≈: the same amount, converted by molar mass.

Experiments:
H. inflenza ATCC 49247 = assay: MIC, agar incorporation method (NCCLS agar dilution method); format: cell-based, Haemophilus influenzae; details: for Minimum Inhibitory Concentrations, H. inflenza ATCC 49247: agar dilution, 18-24 hours, 35±2° C., 5% CO2; for MIC: Haemophilus influenzae, ATCC49247, read-out: Minimum Inhibitory Concentrations, H. inflenza ATCC 49247
Experimental: Minimum inhibitory concentrations (μg/ml) were obtained for representative compounds of the invention, which are given in Table 2.
(§1) Drug dilutions and the agar plates are prepared by NCCLS method. Inoculum is prepared by direct colony suspensions in normal saline and adjusted to 0.5 McFarland turbidity and subsequently diluted as per NCCLS guidelines in order to obtain 10^4 CFU/spot. CFU/ml of a few randomly selected cultures is performed. The cultures are replicated on the agar plates using replicator (Denley's multipoint). The plates are incubated at 35±2° C. and in 5% CO2 atmosphere (for respiratory and Haemophilus strains) for 18-24 hours at 35±2° C. Minimum inhibitory concentrations (MIC) are determined after 18-24 hours. Q. C. strains are also included in each run of the study. The cation content of Mueller Hinton agar is checked by performing disk […] of 10 μg gentamicin disk against Pseudomonas aeroginosa ATCC 27853. The zone of inhibition should fall between 16-21 mm. The concentration of drug at which there is complete disappearance of growth spot or formation of less than 10 colonies per spot is considered as MIC.

MoraXella MI = assay: as above; format: cell-based; details: 18-24 hours, 35±2° C.; for MIC: Moraxella, read-out: Minimum Inhibitory Concentrations, MoraXella MI
Experimental: as §1

S. pneum 1251 (mef) = assay: as above; format: cell-based, streptococcus pneumoniae; details: 18-24 hours, 35±2° C., 5% CO2, mef: efflux pump mef genes; for MIC: Streptococcus pneumoniae, read-out: Minimum Inhibitory Concentrations, S. pneum 1251 (mef)
Experimental: as §1

S. pneum AB 34 (mef) = assay: as above; format: cell-based, streptococcus pneumoniae; details: 18-24 hours, 35±2° C., 5% CO2, mef: efflux pump mef genes; for MIC: Streptococcus pneumoniae, read-out: Minimum Inhibitory Concentrations, S. pneum AB 34 (mef)
Experimental: as §1

S. pneum CS 1687 (mef) = assay: as above; format: cell-based, streptococcus pneumoniae; details: 18-24 hours, 35±2° C., 5% CO2, mef: efflux pump mef genes; for MIC: Streptococcus pneumoniae, read-out: Minimum Inhibitory Concentrations, S. pneum CS 1687 (mef)
Experimental: as §1

S. pneum ATCC 49619 = assay: as above; format: cell-based, streptococcus pneumoniae; details: 35±2° C.; for Minimum Inhibitory Concentrations, S. pneum ATCC 49619: 18-24 hours, 5% CO2; for MIC: Streptococcus pneumoniae, ATCC49619, 18-24 hours, 5% CO2, read-out: Minimum Inhibitory Concentrations, S. pneum ATCC 49619
Experimental: as §1

S. pneum ATCC 6303 = assay: as above; format: cell-based, streptococcus pneumoniae; details: 35±2° C.; for Minimum Inhibitory Concentrations, S. pneum ATCC 6303: 18-24 hours, 5% CO2; for MIC: Streptococcus pneumoniae, ATCC6303, 18-24 hours, 5% CO2, read-out: Minimum Inhibitory Concentrations, S. pneum ATCC 6303
Experimental: as §1

S. pneum AB 29 (erm) = assay: microbe, parasite or virus in culture; format: cell-based, streptococcus pneumoniae; details: for Minimum Inhibitory Concentrations, S. pneum AB 29 (erm): agar dilution, 18-24 hours, 35±2° C., 5% CO2, erm: ribosomal modification (mutation) erm genes; for MIC: Streptococcus pneumoniae, read-out: Minimum Inhibitory Concentrations, S. pneum AB 29 (erm)
Experimental: as §1

S. pneum 1275 (erm) = assay: microbe, parasite or virus in culture; format: cell-based, streptococcus pneumoniae; details: for Minimum Inhibitory Concentrations, S. pneum 1275 (erm): agar dilution, 18-24 hours, 35±2° C., 5% CO2, erm: ribosomal modification (mutation) erm genes; for MIC: Streptococcus pneumoniae, read-out: Minimum Inhibitory Concentrations, S. pneum 1275 (erm)
Experimental: as §1

S. pneum AB 14 (erm) = assay: microbe, parasite or virus in culture; format: cell-based, streptococcus pneumoniae; details: for Minimum Inhibitory Concentrations, S. pneum AB 14 (erm): agar dilution, 18-24 hours, 35±2° C., 5% CO2, erm: ribosomal modification (mutation) erm genes
Experimental: as §1

S. pneum 1294 (mef) = assay: microbe, parasite or virus in culture; format: cell-based, streptococcus pneumoniae; details: for Minimum Inhibitory Concentrations, S. pneum 1294 (mef): agar dilution, 18-24 hours, 35±2° C., 5% CO2, mef: efflux pump mef genes
Experimental: as §1

S. pneum AB 30 (erm) = assay: microbe, parasite or virus in culture; format: cell-based, streptococcus pneumoniae; details: for Minimum Inhibitory Concentrations, S. pneum AB 30 (erm): agar dilution, 18-24 hours, 35±2° C., 5% CO2, erm: ribosomal modification (mutation) erm genes; for MIC: Streptococcus pneumoniae, read-out: Minimum Inhibitory Concentrations, S. pneum AB 30 (erm)
Experimental: as §1

S. pneum 1256 (erm) = assay: microbe, parasite or virus in culture; format: cell-based, streptococcus pneumoniae; details: for Minimum Inhibitory Concentrations, S. pneum 1256 (erm): agar dilution, 18-24 hours, 35±2° C., 5% CO2, erm: ribosomal modification (mutation) erm genes
Experimental: as §1

Row | Molecule | Minimum Inhibitory Concentrations, H. inflenza ATCC 49247 (H. inflenza ATCC 49247) [µg/mL] | Minimum Inhibitory Concentrations, MoraXella MI (MoraXella MI) [µg/mL] | Minimum Inhibitory Concentrations, S. pneum 1251 (mef) (S. pneum 1251 (mef)) [µg/mL] | Minimum Inhibitory Concentrations, S. pneum AB 34 (mef) (S. pneum AB 34 (mef)) [µg/mL] | Minimum Inhibitory Concentrations, S. pneum CS 1687 (mef) (S. pneum CS 1687 (mef)) [µg/mL] | Minimum Inhibitory Concentrations, S. pneum ATCC 49619 (S. pneum ATCC 49619) [µg/mL] | Minimum Inhibitory Concentrations, S. pneum ATCC 6303 (S. pneum ATCC 6303) [µg/mL] | Minimum Inhibitory Concentrations, S. pneum AB 29 (erm) (S. pneum AB 29 (erm)) [µg/mL] | Minimum Inhibitory Concentrations, S. pneum 1275 (erm) (S. pneum 1275 (erm)) [µg/mL] | Minimum Inhibitory Concentrations, S. pneum AB 14 (erm) (S. pneum AB 14 (erm)) [µg/mL] | Minimum Inhibitory Concentrations, S. pneum 1294 (mef) (S. pneum 1294 (mef)) [µg/mL] | Minimum Inhibitory Concentrations, S. pneum AB 30 (erm) (S. pneum AB 30 (erm)) [µg/mL] | Minimum Inhibitory Concentrations, S. pneum 1256 (erm) (S. pneum 1256 (erm)) [µg/mL] | other results
1 | 3-O-(2-Fluorophenyl)acetyl-5-O-(3′-N-desmethyl-3′-N-allyl)desosaminyl-6-O-methyl erythronolide A [Compound No. 23] | >16 | 16 | 2 | >16 | 2 | 2 | 2 | 1 | >16 | >16 | 2 | >16 | >16 | 
2 | 3-O-(2-Fluorophenyl)acetyl-5-O-(3′-N-desmethyl-3′-N-propargyl)desosaminyl-6-O-methyl erythronolide A [Compound No. 21] | >16 | 0.25 | 0.25 | >16 | 0.5 | >16 | 0.5 | >16 | >16 | >16 | 2 | >16 | >16 | 
3 | 3-O-(2-Pyridyl)acetyl-5-O-(3′-N-desmethyl-3′-N-cyclopropylmethyl)desosaminyl-6-O-methyl erythronolide A [Compound No. 50] | >16 | 2 | 0.5 | >16 | 1 | 0.5 | 0.5 | 0.5 | >16 | >16 | 2 | >16 | >16 | 
4 | 3-O-(4-Nitrophenyl)acetyl-5-O-(3′-N-desmethyl-3′-N-ethyl)desoaminyl-6-O-methyl erythronolide A [Compound No. 30] | >16 | 4 | 1 | >16 | 1 | 1 | 1 | <0.5 | >16 | >16 | 2 | >16 | >16 | 
5 | CC[C@H]1OC(=O)[C@H](C)[C@@H](O[C@H]2C[C@@](C)(OC)[C@@H](O)[C@H](C)O2)[C@H](C)[C@@H](O[C@@H]2O[C@H](C)C[C@H](N(C)C)[C@H]2O)[C@](C)(OC)C[C@@H](C)C(=O)[C@H](C)[C@@H](O)[C@]1(C)O [C, Clarithromycin, reference compound] |  |  |  |  |  |  |  |  |  |  |  |  |  | MIC (H. inflenza ATCC 49247): 8 µg/mL (≈ 10.7 µM); MIC (MoraXella MI): 0.125 µg/mL (≈ 0.167 µM); MIC (S. pneum 1251 (mef)): 8 µg/mL (≈ 10.7 µM); MIC (S. pneum AB 34 (mef)): > 16 µg/mL; MIC (S. pneum CS 1687 (mef)): > 16 µg/mL; MIC (S. pneum ATCC 49619): 8 ng/mL (≈ 0.0107 µM); MIC (S. pneum ATCC 6303): 0.008 µg/mL (≈ 0.0107 µM); MIC (S. pneum AB 29 (erm)): > 16 µg/mL; MIC (S. pneum 1275 (erm)): > 16000 ng/mL; MIC (S. pneum AB 14 (erm); Streptococcus pneumoniae, read-out: Minimum Inhibitory Concentrations, S. pneum AB 14 (erm)): > 16 µg/mL; MIC (S. pneum 1294 (mef); Streptococcus pneumoniae, read-out: Minimum Inhibitory Concentrations, S. pneum 1294 (mef)): > 16 µg/mL; MIC (S. pneum AB 30 (erm)): > 16 µg/mL; MIC (S. pneum 1256 (erm); Streptococcus pneumoniae, read-out: Minimum Inhibitory Concentrations, S. pneum 1256 (erm)): > 16 µg/mL
6 | CCC1OC(=O)C(C)C(OC(=O)Cc2ccc(F)cc2F)C(C)C(OC2OC(C)CC(N(C)Cc3ccccc3)C2O)C(C)(OC)CC(C)C(=O)C(C)C(O)C1(C)O (stereo not drawn) [Compound No. 74, 3-O-(2,4-Difluorophenyl)acetyl-5-O-(3′-N-desmethyl-3′-N-benzyl) desosaminyl-6-O-methyl erythronolide A] |  | >16 | >16 | >16 | >16 | >16 | 8 | >16 | >16 | 16 | >16 | >16 | >16 | 
7 | CC[C@H]1OC(=O)[C@H](C)C(=O)[C@H](C)[C@@H](O[C@@H]2O[C@H](C)C[C@H](N(C)C)[C@H]2O)[C@](C)(OC)C[C@@H](C)C(=O)[C@H](C)[C@H]2N(CCCCn3cnc(-c4cccnc4)c3)C(=O)O[C@]12C [T, Telithromycin, reference compound] |  |  |  |  |  |  |  |  |  |  |  |  |  | MIC (H. inflenza ATCC 49247): 2 µg/mL (≈ 2.46 µM); MIC (MoraXella MI): 0.03 µg/mL (≈ 0.0369 µM); MIC (S. pneum 1251 (mef)): 0.5 µg/mL (≈ 0.616 µM); MIC (S. pneum AB 34 (mef)): 0.125 µg/mL (≈ 0.154 µM); MIC (S. pneum CS 1687 (mef)): 0.125 µg/mL (≈ 0.154 µM); MIC (S. pneum ATCC 49619): 8 ng/mL (≈ 0.00985 µM); MIC (S. pneum ATCC 6303): 0.015 µg/mL (≈ 0.0185 µM); MIC (S. pneum AB 29 (erm)): 0.25 µg/mL (≈ 0.308 µM); MIC (S. pneum 1275 (erm)): 8 ng/mL (≈ 0.00985 µM); MIC (S. pneum AB 30 (erm)): 0.25 µg/mL (≈ 0.308 µM)
